Results on eleven compounds are retold here after ChEMBL document CHEMBL1201862, “PubChem BioAssay data set” (2004).

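How tested: cells in 96-well plates exposed to compound for 48 hours at five concentrations. At the GI50, growth is halved.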 Activity calls are given as the source filed them. No stated cut-off is given here; in the data, active = GI50 up to about 1.1 µM and inactive = higher. Some results are limits rather than exact numbers.

Some test systems named below: 786-0; BT-549; EKVX; K562; MCF7; MDA-MB-435; MDA-N; NCI-H226; NCI-H23; OVCAR-3; OVCAR-8; RXF 393; SF-268; SF-295; SK-MEL-2; SN12C; SNB-75; UACC-257; HCC 2998.
What all share (test): DTP human tumour cell line panel, 48 h

As usually defined, the GI50 is the concentration at which growth is held to half of that of the control. Turning to `COC(=O)[C@@H]1c2c(oc3cc(CO)cc(O)c3c2=O)C=C[C@H]1O`, the GI50 in the assay with 786-0 was 2.45 µM (inactive); with BT-549 it was 2.94 µM (inactive); with EKVX it was 13.3 µM (inactive); in the assay on K562, 3.28 µM (inactive); with MCF7, 2.86 µM (inactive); in the assay on MDA-MB-435 it was 4.15 µM (inactive). Further, the GI50 was 4.59 µM (inactive) in the assay on MDA-N; 25.8 µM (inactive) in the assay with NCI-H226; 19 µM (inactive) in the assay with NCI-H23; 8.02 µM (inactive) with OVCAR-3; 5.56 µM (inactive) in the assay with OVCAR-8; 2.8 µM (inactive) in the assay on RXF 393. The GI50 in the assay on SF-268 is 6.19 µM (inactive); with SF-295, 18.4 µM (inactive); in the assay on SK-MEL-2 it was 15.2 µM (inactive); in the assay with SN12C it was 9.86 µM (inactive); with SNB-75, 17.9 µM (inactive); in the assay on UACC-257, 8.85 µM (inactive).

Consider `CC(C)(Br)C(Br)CC/C(=C/CBr)CBr.CC(C)(Br)C(Br)CC/C(=C\CBr)CBr` (stereo unspecified), for which the GI50 is 1.95 µM (inactive) with 786-0; 2.45 µM (inactive) in the assay with BT-549; 25.3 µM (inactive) in the assay on EKVX; 13.5 µM (inactive) in the assay with HCC 2998; 2.24 µM (inactive) in the assay on K562; 3.29 µM (inactive) with MCF7. For the same compound, the GI50 with MDA-MB-435 was 3.69 µM (inactive); with MDA-N, 2.16 µM (inactive); in the assay with NCI-H226, 14.2 µM (inactive); in the assay with NCI-H23 it was 3.41 µM (inactive); in the assay on OVCAR-8, 2.54 µM (inactive); in the assay on RXF 393, 2.22 µM (inactive). For the same compound, the GI50 was 2.21 µM (inactive) with SF-268; 3.46 µM (inactive) in the assay on SF-295; 3.19 µM (inactive) in the assay on SK-MEL-2; 2 µM (inactive) with SN12C; 3.98 µM (inactive) in the assay with SNB-75; 6 µM (inactive) in the assay on UACC-257.

Consider `COC(=O)[C@@H](Cc1ccccc1)N1O[C@]12CCCC[C@@H]2NC(=O)OC(C)(C)C` (stereo partly specified), for which the GI50 in the assay with 786-0 is 26.1 µM (inactive); with BT-549, 18.1 µM (inactive); in the assay with EKVX it was 27.9 µM (inactive); in the assay on HCC 2998 it was 59.6 µM (inactive); with K562, 40.1 µM (inactive); in the assay with MCF7 it was 15.2 µM (inactive). In addition, the GI50 is 25.8 µM (inactive) in the assay with MDA-MB-435; 20.4 µM (inactive) in the assay on MDA-N; 47.3 µM (inactive) with NCI-H226; 21.3 µM (inactive) with NCI-H23; 21.9 µM (inactive) with OVCAR-3; 25 µM (inactive) in the assay on RXF 393. Further, the GI50 in the assay with SF-268 was 18 µM (inactive); in the assay with SF-295, 55.6 µM (inactive); in the assay with SK-MEL-2 it was 20.4 µM (inactive); in the assay on SN12C it was 32.3 µM (inactive); in the assay on SNB-75, 30.4 µM (inactive); with UACC-257 it was 36.4 µM (inactive).

On to `CCOC(=O)c1sc2nc1CSc1sc(=S)sc1SCc1nc(sc1C(=O)OCC)-c1nc(c(C(=O)OCC)s1)CSc1sc(=S)sc1SCc1nc-2sc1C(=O)OCC`, for which the GI50 in the assay with 786-0, in the assay on BT-549, in the assay with EKVX, in the assay on HCC 2998, in the assay on K562 and with MCF7 was > 10 µM (inactive) in each case. The GI50 in the assay with MDA-MB-435, in the assay with MDA-N, in the assay with NCI-H23, in the assay with OVCAR-3, with OVCAR-8 and in the assay with RXF 393 was > 10 µM (inactive) each time. The GI50 in the assay with SF-268, in the assay with SF-295, in the assay with SK-MEL-2, in the assay on SN12C, in the assay on SNB-75 and with UACC-257 was > 10 µM (inactive) each time.

For the compound `CCOC(=O)CO/N=C\C1=CC(=O)C2CC1C2(C)C` (stereo unspecified), the GI50 with 786-0, in the assay on BT-549, in the assay with EKVX, in the assay with K562, in the assay on MCF7 and in the assay with MDA-MB-435 was > 100 µM (inactive) in each case. Also, the GI50 in the assay with MDA-N, in the assay on NCI-H226, in the assay with NCI-H23, with OVCAR-3, in the assay on OVCAR-8 and with RXF 393 was > 100 µM (inactive) throughout. The GI50 in the assay with SF-268 is > 100 µM (inactive); in the assay with SF-295, > 100 µM (inactive); in the assay on SK-MEL-2, > 100 µM (inactive); in the assay with SN12C, > 100 µM (inactive); with SNB-75, 30.1 µM (inactive); in the assay on UACC-257 it was > 100 µM (inactive).

Take `C/C(=N\[N+](C)(C)C)c1ccc(C)c(C)c1`: the GI50 with 786-0 was > 10 µM (inactive); in the assay on BT-549, 58.3 µM (inactive); in the assay on EKVX, 7.5 µM (inactive); with HCC 2998 it was > 10 µM (inactive); with K562, 46.1 µM (inactive); in the assay with MCF7, > 10 µM (inactive). For the same compound, the GI50 with MDA-MB-435 was 96.4 µM (inactive); with MDA-N, 45.8 µM (inactive); in the assay on NCI-H23, 62.5 µM (inactive); in the assay with OVCAR-3 it was 78.2 µM (inactive); with OVCAR-8 it was 55.1 µM (inactive); with RXF 393, 62.8 µM (inactive). Also, the GI50 with SF-268 is > 10 µM (inactive); in the assay with SF-295, 83.6 µM (inactive); in the assay with SK-MEL-2, > 100 µM (inactive); with SN12C, 20.4 µM (inactive); in the assay with SNB-75, 53.5 µM (inactive); with UACC-257, 0.752 µM (active).

As to `FC(F)(F)c1ccccc1C1SCC2=Nc3ccccc3CN21` (stereo unspecified), the GI50 with 786-0 is 11.9 µM (inactive); in the assay with BT-549, 19.3 µM (inactive); in the assay on EKVX, 12 µM (inactive); in the assay with HCC 2998 it was 14.5 µM (inactive); in the assay with K562, 21.8 µM (inactive); in the assay on MCF7 it was 13.6 µM (inactive). Besides, the GI50 in the assay on MDA-MB-435 is 22.5 µM (inactive); in the assay with MDA-N it was 29.5 µM (inactive); in the assay on NCI-H226, 12.6 µM (inactive); in the assay with NCI-H23 it was 11.9 µM (inactive); in the assay with OVCAR-8, 16.9 µM (inactive); in the assay on RXF 393, 10.2 µM (inactive). The GI50 was 15.1 µM (inactive) in the assay on SF-268; 13.1 µM (inactive) in the assay on SF-295; 27 µM (inactive) in the assay with SN12C; 14 µM (inactive) in the assay on SNB-75; 15.9 µM (inactive) with UACC-257.

For the compound `CC(=O)O[C@H]1C[C@H]2[C@@H](OC(C)=O)/C=C3\C[C@](C)(C(=O)[C@H](O)C(=C1C)C2(C)C)[C@@H](O)C[C@@H]3OC(=O)[C@H](O)[C@H](c1ccccc1)N(C)C`, the GI50 in the assay on 786-0, with BT-549, in the assay on EKVX, in the assay with K562, with MCF7 and in the assay on MDA-MB-435 was > 100 µM (inactive) each time. Moreover, the GI50 in the assay with MDA-N, in the assay on NCI-H226, in the assay on NCI-H23, in the assay on OVCAR-3, in the assay on OVCAR-8 and in the assay with RXF 393 was > 100 µM (inactive) in each case. Also, the GI50 in the assay on SF-268, with SF-295, with SN12C, in the assay with SNB-75 and in the assay with UACC-257 was > 100 µM (inactive) each time.

In the case of `CC(C)C(=O)Oc1cc2c(=O)oc3c(OC(=O)C(C)C)c(OC(=O)C(C)C)cc4c(=O)oc(c1OC(=O)C(C)C)c2c34`, the GI50 in the assay with 786-0, with BT-549, in the assay with EKVX, in the assay with HCC 2998, in the assay on K562 and in the assay on MCF7 was > 100 µM (inactive) each time. For the same compound, the GI50 in the assay with MDA-MB-435, in the assay with MDA-N, in the assay with NCI-H226, in the assay on NCI-H23, in the assay on OVCAR-3 and in the assay on OVCAR-8 was > 100 µM (inactive) each time. Also, the GI50 in the assay with RXF 393, in the assay on SF-268, in the assay on SF-295, with SN12C, in the assay with SNB-75 and in the assay on UACC-257 was > 100 µM (inactive) in each case.

`CC1=C[C@H]([C@H]2C=C(C)C(C(N)=O)=CN2Cc2c(Cl)cccc2Cl)N(Cc2c(Cl)cccc2Cl)C=C1C(N)=O`: the GI50 with 786-0, with BT-549, in the assay with EKVX, with HCC 2998, with K562 and with MCF7 was > 75 µM (inactive) throughout. The GI50 was > 75 µM (inactive) in the assay on MDA-MB-435; 48.9 µM (inactive) in the assay on MDA-N; > 75 µM (inactive) with NCI-H226; > 75 µM (inactive) in the assay on NCI-H23; > 75 µM (inactive) in the assay on OVCAR-3; 52.7 µM (inactive) in the assay on OVCAR-8. Moreover, the GI50 with RXF 393 is 74.5 µM (inactive); with SF-268, > 75 µM (inactive); with SF-295 it was > 75 µM (inactive); with SK-MEL-2, > 75 µM (inactive); in the assay on SN12C, > 75 µM (inactive); with UACC-257 it was 73.8 µM (inactive).

As for `N#Cc1c(N)nc2[nH]nc(N)c2c1-c1ccc(Cl)cc1`, the GI50 was 7.94 µM (inactive) in the assay on 786-0; 2.73 µM (inactive) in the assay on BT-549; 5.21 µM (inactive) in the assay with EKVX; 10 µM (inactive) with HCC 2998; 16.9 µM (inactive) in the assay on K562; 3.03 µM (inactive) in the assay on MCF7. The GI50 in the assay on MDA-MB-435 is 5.85 µM (inactive); with MDA-N it was 4.22 µM (inactive); in the assay on NCI-H226 it was 5.41 µM (inactive); with NCI-H23 it was 3.76 µM (inactive); with OVCAR-3, 2.34 µM (inactive); in the assay with OVCAR-8, 6.75 µM (inactive). In addition, the GI50 is 2.11 µM (inactive) with RXF 393; 5.11 µM (inactive) in the assay with SF-268; 6.03 µM (inactive) with SF-295; 1.88 µM (inactive) in the assay on SK-MEL-2; 3.32 µM (inactive) in the assay with SN12C; 11.9 µM (inactive) in the assay with UACC-257.
